Molecules are shown by their SMILES.

This is an account of results in EP3915971A1, “PHENYL-S(O)N-PHENYLAMIDINES AND THE USE THEREOF AS FUNGICIDES” (Bayer Aktiengesellschaft, priority 2020, dated 2021).

The first data set concerns Phakospora pachyrhizi. Description: in vivo preventive test on Phakospora pachyrhizi (soybean rust). The conditions noted are these: 500 ppm. The procedure:
Example A: in vivo preventive test on Phakospora pachyrhizi (soybean rust) [table] The active ingredients were made soluble and homogenized in a mixture of Dimethyl sulfoxide/Acetone/ /Tween® 80 and then diluted in water to the desired concentration. The young plants of soybean were treated by spraying the active ingredient prepared as described above. Control plants were treated only with an aqueous solution of Acetone/Dimethyl sulfoxide/ Tween® 80. After 24 hours, the plants were contaminated by spraying the leaves with an aqueous suspension of Phakospora pachyrhizi spores. The contaminated soybean plants were incubated for 24 hours at 24°C and at 100% relative humidity and then for 10 days at 24°C and at 70-80% relative humidity. The test was evaluated 11 days after the inoculation. 0% means an efficacy which corresponds to that of the control plants while an efficacy of 100% means that no disease was observed.
In the case of `CCN(C)C=Nc1cc(C)c([S+]([O-])c2ccccc2C#N)cc1C` (centres unmarked) [Example I-052, N'-[4-(2-cyanophcnyl)sulfinyl-2,5-dimethylphenyl]-N-ethyl-N-methylmethanimidamide], the efficacy result is reported as “at least 70%”.

Take `CCc1cc(Sc2ccccc2F)c(C)cc1N=CN(C)CC` [Example I-087]: the efficacy result was “at least 70%”.

Still in this data set, the particulars now being: Glycine max, 264 h; 500 ppm of active ingredient; preventive spray on young soybean plants, inoculation after 24 hours, evaluated 11 days after inoculation; 0% = control plants, 100% = no disease; read-out: efficacy.
For the compound `CCN(C)C=Nc1cc(F)c(Sc2ccccc2Cl)cc1C` [Example I-023, N'-[4-[(2-chlorophenyl)thio]-5-fluoro-2-methylphenyl]-N-ethyl-N-methylmethanimidamide], the pest or weed control at 500 ppm was at least 70%.

On to `CCN(C)C=Nc1cc(Cl)c(Sc2ccccc2F)cc1C` [Example I-024, N'-[5-chloro-4-[(2-fluorophenyl)thio]-2-methylphenyl]-N-ethyl-N-methylmethanimidamide], for which the pest or weed control at 500 ppm was at least 70%.

As to `CCN(C)C=Nc1cc(Cl)c(Sc2ccccc2C)cc1C` [Example I-025, N'-[5-chloro-2-methyl-4-[(2-methylphenyl)thio]phenyl]-N-ethyl-N-methylmethanimidamide], the pest or weed control at 500 ppm was at least 70%.

On to `CCN(C)C=Nc1cc(Cl)c(S(=O)(=O)c2ccccc2F)cc1C` [Example I-026, N'-[5-chloro-4-(2-fluorophenyl)sulfonyl-2-methylphenyl]-N-ethyl-N-methylmethanimidamide], for which the pest or weed control at 500 ppm is at least 70%.

On to `CCN(C)C=Nc1cc(Br)c(Sc2ccccc2)cc1C` [Example I-039, N'-(5-bromo-2-methyl-4-phenylsulfanylphenyl)-N-ethyl-N-methylmethanimidamide], for which the pest or weed control at 500 ppm is at least 70%.

Take `CCN(C)C=Nc1cc(Cl)c(Sc2ccccc2)cc1C` [Example I-041, N'-(5-chloro-2-methyl-4-phenylsulfanylphenyl)-N-ethyl-N-methylmethanimidamide]: the pest or weed control at 500 ppm is at least 70%.

`CCN(C)C=Nc1cc(Br)c(Sc2ccccc2C)cc1C` [Example I-042, N'-[5-bromo-2-methyl-4-[(2-methylphenyl)thio]phenyl]-N-ethyl-N-methylmethanimidamide]: the pest or weed control at 500 ppm was at least 70%.

Take `CCN(C)C=Nc1cc(Br)c(S(=O)(=O)c2ccccc2Cl)cc1C` [Example I-044, N'-[5-bromo-4-(2-chlorophenyl)sulfonyl-2-methylphenyl]-N-ethyl-N-methylmethanimidamide]: the pest or weed control at 500 ppm was at least 70%.

On to `CCN(C)C=Nc1cc(Br)c(S(=O)(=O)c2ccccc2C)cc1C` [Example I-045, N'-[5-bromo-2-methyl-4-(2-methylphenyl)sulfonylphenyl]-N-ethyl-N-methylmethanimidamide], for which the pest or weed control at 500 ppm was at least 70%.

For `CCN(C)C=Nc1cc(Br)c(Sc2ccccc2F)cc1C` [Example I-046, N'-[5-bromo-4-[(2-fluorophenyl)thio]-2-methylphenyl]-N-ethyl-N-methylmethanimidamide], the pest or weed control at 500 ppm is at least 70%.

Take `CCN(C)C=Nc1cc(Br)c(Sc2ccccc2Cl)cc1C` [Example I-047, N'-[5-bromo-4-[(2-chlorophenyl)thio]-2-methylphenyl]-N-ethyl-N-methylmethanimidamide]: the pest or weed control at 500 ppm was at least 70%.

For `CCN(C)C=Nc1cc(C#N)c(Sc2ccccc2)cc1C` [Example I-054, N'-(5-cyano-2-methyl-4-phenylsulfanylphenyl)-N-ethyl-N-methylmethanimidamide], the pest or weed control at 500 ppm was at least 70%.

As for `CCN(C)C=Nc1cc(C#N)c(Sc2ccccc2C)cc1C` [Example I-058, N'-[5-cyano-2-methyl-4-[(2-methylphenyl)thio]phenyl]-N-ethyl-N-methylmethanimidamide], the pest or weed control at 500 ppm is at least 70%.

With `CCN(C)C=Nc1cc(C#N)c(Sc2ccccc2Cl)cc1C` [Example I-060, N'-[4-[(2-chlorophenyl)thio]-5-cyano-2-methylphenyl]-N-ethyl-N-methylmethanimidamide], the pest or weed control at 500 ppm is at least 70%.

In the case of `CCN(C)C=Nc1cc(Cl)c(Sc2ccccc2Cl)cc1C` [Example I-066, N'-[5-chloro-4-[(2-chlorophenyl)thio]-2-methylphenyl]-N-ethyl-N-methylmethanimidamide], the pest or weed control at 500 ppm was at least 70%.

For `CCN(C)C=Nc1cc(Cl)c(Sc2ccccc2C#N)cc1C` [Example I-067, N'-[5-chloro-4-[(2-cyanophenyl)thio]-2-methylphenyl]-N-ethyl-N-methylmethanimidamide], the pest or weed control at 500 ppm was at least 70%.

As for `CCN(C)C=Nc1cc(Br)c(Sc2ccccc2C#N)cc1C` [Example I-068, N'-[5-bromo-4-[(2-cyanophenyl)thio]-2-methylphenyl]-N-ethyl-N-methylmethanimidamide], the pest or weed control at 500 ppm is at least 70%.

`CCN(C)C=Nc1cc(C)c(Sc2ccccc2C#N)cc1C` [Example I-069, N'-[4-[(2-cyanophenyl)thio]-2,5-dimethylphenyl]-N-ethyl-N-methylmethanimidamide]: the pest or weed control at 500 ppm was at least 70%.

Regarding `CCN(C)C=Nc1cc(C)c(Sc2ccccc2F)cc1Br` [Example I-077, N'-[2-bromo-4-[(2-fluorophenyl)thio]-5-methylphenyl]-N-ethyl-N-methylmethanimidamide], the pest or weed control at 500 ppm was at least 70%.

For `CCN(C)C=Nc1cc(C)c(Sc2ccccc2C)cc1Br` [Example I-078, N'-[2-bromo-5-methyl-4-[(2-methylphenyl)thio]phenyl]-N-ethyl-N-methylmethanimidamide], the pest or weed control at 500 ppm was at least 70%.

With `CCN(C)C=Nc1cc(C)c(Sc2ccccc2F)cc1C(C)C` [Example I-082, N-ethyl-N'-[4-[(2-fluorophenyl)thio]-2-isopropyl-5-methylphenyl]-N-methylmethanimidamide], the pest or weed control at 500 ppm is at least 70%.

With `CCN(C)C=Nc1cc(C)c(Sc2ccccc2C)cc1C1CC1` [Example I-085, N'-[2-cyclopropyl-5-methyl-4-[(2-methylphenyl)thio]phenyl]-N-ethyl-N-methylmethanimidamide], the pest or weed control at 500 ppm is at least 70%.

For `CCN(C)C=Nc1cc(C)c(Sc2ccccc2)cc1C1CC1` [Example I-090, N'-(2-cyclopropyl-5-methyl-4-phenylsulfanylphenyl)-N-ethyl-N-methylmethanimidamide], the pest or weed control at 500 ppm was at least 70%.

Test system in another data set: not listed separately
Description: LogP measurement by HPLC on reversed phase columns (EEC directive 79/831 Annex V.A8). In kind it is physicochemical. The following applies: method [a]: LC-UV, acidic range, 0.1% formic acid in water and acetonitrile as eluent (linear gradient 10% to 95% acetonitrile). The protocol:
Measurement of LogP values was performed according to EEC directive 79/831 Annex V.A8 by HPLC (High Performance Liquid Chromatography) on reversed phase columns with the following methods: • ^[a] LogP value is determined by measurement of LC-UV, in an acidic range, with 0.1% formic acid in water and acetonitrile as eluent (linear gradient from 10% acetonitrile to 95% acetonitrile). • ^[b] LogP value is determined by measurement of LC-UV, in a neutral range, with 0.001 molar ammonium acetate solution in water and acetonitrile as eluent (linear gradient from 10% acetonitrile to 95% acetonitrile). • ^[c] LogP value is determined by measurement of LC-UV, in an acidic range, with 0.1% phosphoric acid and acetonitrile as eluent (linear gradient from 10% acetonitrile to 95% acetonitrile).
If more than one LogP value is available within the same method, all the values are given and separated by "+". […]
`CCN(C)C=Nc1cc(C)c([S+]([O-])c2ccccc2C#N)cc1C` (centres unmarked) [Example I-052, N'-[4-(2-cyanophcnyl)sulfinyl-2,5-dimethylphenyl]-N-ethyl-N-methylmethanimidamide]: the chromatographic logP was determined as 0.73.

Regarding `CCc1cc(Sc2ccccc2F)c(C)cc1N=CN(C)CC` [Example I-087], the chromatographic logP is 1.77.

Still in this data set, the particulars now being: reversed phase HPLC columns, method [a]: LC-UV, acidic range, 0.1% formic acid in water and acetonitrile as eluent (linear gradient 10% to 95% acetonitrile).
With `CCN(C)C=Nc1cc(F)c(Sc2ccccc2Cl)cc1C` [Example I-023, N'-[4-[(2-chlorophenyl)thio]-5-fluoro-2-methylphenyl]-N-ethyl-N-methylmethanimidamide], the chromatographic logP was 1.69.

On to `CCN(C)C=Nc1cc(Cl)c(Sc2ccccc2F)cc1C` [Example I-024, N'-[5-chloro-4-[(2-fluorophenyl)thio]-2-methylphenyl]-N-ethyl-N-methylmethanimidamide], for which the chromatographic logP stood at 1.61.

For `CCN(C)C=Nc1cc(Cl)c(Sc2ccccc2C)cc1C` [Example I-025, N'-[5-chloro-2-methyl-4-[(2-methylphenyl)thio]phenyl]-N-ethyl-N-methylmethanimidamide], the chromatographic logP was 1.81.

`CCN(C)C=Nc1cc(Cl)c(S(=O)(=O)c2ccccc2F)cc1C` [Example I-026, N'-[5-chloro-4-(2-fluorophenyl)sulfonyl-2-methylphenyl]-N-ethyl-N-methylmethanimidamide] yielded a chromatographic logP of 1.42.

In turn, `CCN(C)C=Nc1cc(Br)c(Sc2ccccc2)cc1C` [Example I-039, N'-(5-bromo-2-methyl-4-phenylsulfanylphenyl)-N-ethyl-N-methylmethanimidamide] came in with a chromatographic logP of 1.66.

For `CCN(C)C=Nc1cc(Cl)c(Sc2ccccc2)cc1C` [Example I-041, N'-(5-chloro-2-methyl-4-phenylsulfanylphenyl)-N-ethyl-N-methylmethanimidamide], the chromatographic logP came out at 1.63.

The compound `CCN(C)C=Nc1cc(Br)c(Sc2ccccc2C)cc1C` [Example I-042, N'-[5-bromo-2-methyl-4-[(2-methylphenyl)thio]phenyl]-N-ethyl-N-methylmethanimidamide] gave a chromatographic logP of 1.81.

The compound `CCN(C)C=Nc1cc(Br)c(S(=O)(=O)c2ccccc2Cl)cc1C` [Example I-044, N'-[5-bromo-4-(2-chlorophenyl)sulfonyl-2-methylphenyl]-N-ethyl-N-methylmethanimidamide] had a chromatographic logP of 1.58.

`CCN(C)C=Nc1cc(Br)c(S(=O)(=O)c2ccccc2C)cc1C` [Example I-045, N'-[5-bromo-2-methyl-4-(2-methylphenyl)sulfonylphenyl]-N-ethyl-N-methylmethanimidamide] yielded a chromatographic logP of 1.53.

Regarding `CCN(C)C=Nc1cc(Br)c(Sc2ccccc2F)cc1C` [Example I-046, N'-[5-bromo-4-[(2-fluorophenyl)thio]-2-methylphenyl]-N-ethyl-N-methylmethanimidamide], the chromatographic logP turned out to be 1.66. The chromatographic logP values of the last two compounds are within 0.2 log units of each other.

Compound `CCN(C)C=Nc1cc(Br)c(Sc2ccccc2Cl)cc1C` [Example I-047, N'-[5-bromo-4-[(2-chlorophenyl)thio]-2-methylphenyl]-N-ethyl-N-methylmethanimidamide] showed a chromatographic logP of 1.84.

As for `CCN(C)C=Nc1cc(C#N)c(Sc2ccccc2)cc1C` [Example I-054, N'-(5-cyano-2-methyl-4-phenylsulfanylphenyl)-N-ethyl-N-methylmethanimidamide], the chromatographic logP was determined as 1.42.

`CCN(C)C=Nc1cc(C#N)c(Sc2ccccc2C)cc1C` [Example I-058, N'-[5-cyano-2-methyl-4-[(2-methylphenyl)thio]phenyl]-N-ethyl-N-methylmethanimidamide]: the chromatographic logP came out at 1.61.

Compound `CCN(C)C=Nc1cc(C#N)c(Sc2ccccc2Cl)cc1C` [Example I-060, N'-[4-[(2-chlorophenyl)thio]-5-cyano-2-methylphenyl]-N-ethyl-N-methylmethanimidamide] came in with a chromatographic logP of 1.66.

As for `CCN(C)C=Nc1cc(Cl)c(Sc2ccccc2Cl)cc1C` [Example I-066, N'-[5-chloro-4-[(2-chlorophenyl)thio]-2-methylphenyl]-N-ethyl-N-methylmethanimidamide], the chromatographic logP came to 1.84.

Compound `CCN(C)C=Nc1cc(Cl)c(Sc2ccccc2C#N)cc1C` [Example I-067, N'-[5-chloro-4-[(2-cyanophenyl)thio]-2-methylphenyl]-N-ethyl-N-methylmethanimidamide] had a chromatographic logP of 1.53.

For the compound `CCN(C)C=Nc1cc(Br)c(Sc2ccccc2C#N)cc1C` [Example I-068, N'-[5-bromo-4-[(2-cyanophenyl)thio]-2-methylphenyl]-N-ethyl-N-methylmethanimidamide], the chromatographic logP was 1.53.

`CCN(C)C=Nc1cc(C)c(Sc2ccccc2C#N)cc1C` [Example I-069, N'-[4-[(2-cyanophenyl)thio]-2,5-dimethylphenyl]-N-ethyl-N-methylmethanimidamide]: the chromatographic logP is 1.42.

With `CCN(C)C=Nc1cc(C)c(Sc2ccccc2F)cc1Br` [Example I-077, N'-[2-bromo-4-[(2-fluorophenyl)thio]-5-methylphenyl]-N-ethyl-N-methylmethanimidamide], the chromatographic logP is 1.75.

On to `CCN(C)C=Nc1cc(C)c(Sc2ccccc2C)cc1Br` [Example I-078, N'-[2-bromo-5-methyl-4-[(2-methylphenyl)thio]phenyl]-N-ethyl-N-methylmethanimidamide], for which the chromatographic logP was 1.92.

`CCN(C)C=Nc1cc(C)c(Sc2ccccc2F)cc1C(C)C` [Example I-082, N-ethyl-N'-[4-[(2-fluorophenyl)thio]-2-isopropyl-5-methylphenyl]-N-methylmethanimidamide] displayed a chromatographic logP of 1.9.

As for `CCN(C)C=Nc1cc(C)c(Sc2ccccc2C)cc1C1CC1` [Example I-085, N'-[2-cyclopropyl-5-methyl-4-[(2-methylphenyl)thio]phenyl]-N-ethyl-N-methylmethanimidamide], the chromatographic logP stood at 1.99.

As to `CCN(C)C=Nc1cc(C)c(Sc2ccccc2)cc1C1CC1` [Example I-090, N'-(2-cyclopropyl-5-methyl-4-phenylsulfanylphenyl)-N-ethyl-N-methylmethanimidamide], the chromatographic logP turned out to be 1.77.

The term chromatographic logP denotes a lipophilicity value derived from retention on a column. A higher chromatographic logP goes with a more lipophilic compound.
